Assay results taken from patent publication US11453669B2, “Polycyclic pyridone derivative” (Shionogi & Co., Ltd., priority 2018, dated 2022).
Read-outs that look alike come from different tables or passages of the source.

Legend:
HIV = assay: Anti-HIV activity (MT-4 cells, MTT); type: cell-based; settings: Human immunodeficiency virus 1, MT4, 96 h, read-out: EC50_nM (50% HIV inhibitory concentration)
Experimental: Serial dilutions of a test sample were prepared in a 96-well microplate (50 μL/well). 2.5×10^5 cells/mL of an MT-4 cell suspension was dispensed at 100 μL/well to the plate containing the test sample. Then, an HIV virus solution was dispensed at 50 μL/well. The plate was mixed with a plate mixer and cultured for 4 days in a CO2 incubator. An MTT (3-(4,5-dimethylthiazol-2-yl)-2,5-diphenyltetrazolium bromide) solution was dispensed at 30 μL/well. The plate was reacted for 1 hour in a CO2 incubator. 150 μL of the supernatant was removed from each well so as not to take up the cells. 150 μL of a cell lysis solution was added to each well and well mixed with a plate mixer until the cells were completely lysed. The absorbance of the mixed plate was measured at two wavelengths of 560 nm and 690 nm using a microplate reader.

[1] = system: HIV mutant strain 1 (E138K/G140S/Q148H/N155H); type: cell-based; settings: FC=EC50 of the mutant strain/EC50 of the wild strain, HeLa-CD4 cells
Experimental: (§1) Serial dilutions of a test sample were prepared in a 96-well microplate (50 μL/well). 2.5×10^5 cells/mL of a HeLa-CD4 cell suspension was dispensed at 100 μL/well to the plate containing the test sample. Then, an HIV virus solution (wild strain and mutant strain) was dispensed at 50 μL/well. The plate was mixed with a plate mixer and cultured for 3 days in a CO2 incubator. The culture supernatant in each well was removed by suction. A cell lysis buffer in a reporter assay kit was dispensed at 100 μL/well, and the plate was frozen in a freezer (−80° C.). The plate frozen in a freezer was thawed at room temperature, then mixed with a plate mixer, and centrifuged at 1,200 rpm for 5 minutes. The supernatant of each well was dispensed at 20 μL/well to a 96-well microplate (BLACK). A chemiluminescent in the reporter assay kit reagent was dispensed at 100 μL/well and reacted at room temperature for approximately 1 hour. Then, luminescence intensity was measured using MicroBeta TRILUX.

[2] = system: HIV mutant strain 2 (E92Q/E138T/G140S/Q148H); type: cell-based; settings: FC=EC50 of the mutant strain/EC50 of the wild strain, HeLa-CD4 cells
Experimental: as §1

[3] = type: in vitro ADME; settings: human, 30 min, 0.5 μmol/L, pH 7.4
Experimental: Using commercially available pooled human liver microsomes, a compound of the present invention was reacted for a constant time, and a remaining rate was calculated by comparing a reacted sample and an unreacted sample, thereby, a degree at which the compound of the present invention was metabolized in liver was assessed.
A reaction was performed (oxidative reaction) at 37° C. for 0 minute or 30 minutes in the presence of 1 mmol/L NADPH in 0.2 mL of a buffer solution (50 mmol/L Tris-HCl pH 7.4, 150 mmol/L potassium chloride, 10 mmol/L magnesium chloride) containing 0.5 mg protein/mL of human liver microsomes. After the reaction, 50 μL of the reaction solution was added to 100 μL of a solution of methanol/acetonitrile=1/1 (v/v), and the mixture was mixed and centrifuged at 3000 rpm for 15 minutes. The compound of the present invention in the centrifugation supernatant was quantified by LC/MS/MS or solid-phase extraction (SPE)/MS. The amount of the compound of the present invention remaining after the reaction was calculated with the amount of the compound at 0 minutes of the reaction defined as 100%.

[4] = MT-4 cells, cultured 4 days, MTT

SMILES | EC50 (HIV; [4]) [nM] | also measured
CN1C(=O)c2c(O)c(=O)c(-c3nnc(Cc4c(F)cc(F)cc4F)s3)cn2N2CCOC[C@@H]12 [II-012] | 0.25 | –
CCN1C(=O)c2c(O)c(=O)c(-c3nnc(Cc4c(F)cc(F)cc4F)s3)cn2N2CCOC[C@H]12 [II-017] | 1.1 | –
CCN1C(=O)c2c(O)c(=O)c(-c3nnc(Cc4ccc(F)cc4F)s3)cn2N2CC[C@H](C)[C@@H]12 [II-022] | 0.67 | –
CCN1C(=O)c2c(O)c(=O)c(-c3nnc(Cc4c(F)cc(F)cc4F)s3)cn2N2C[C@H]3CC[C@H](O3)[C@H]12 [II-045] | 2 | –
CCN1C(=O)c2c(O)c(=O)c(-c3nnc(Cc4ccc(F)cc4F)s3)cn2N2[C@H](C)CCC[C@@H]12 [II-066] | 1.1 | –
CCN1C(=O)c2c(O)c(=O)c(-c3nnc(Cc4ccc(F)c(F)c4F)s3)cn2N2CCCC[C@@H]12 [Compound I-014] | 1.3 | –
CCN1C(=O)c2c(O)c(=O)c(-c3ncc(Cc4ccc(F)cc4F)s3)cn2N2CCCC[C@H]12 [Compound I-003] | 7.1 | –
CCN1C(=O)c2c(O)c(=O)c(-c3nnc(Cc4c(F)cc(F)cc4F)s3)cn2N2CC[C@@H](C)C[C@@H]12 [II-057] | – | FC (fold change) for mutant strain 1 [1]: 3; FC (fold change) for mutant strain 2 [2]: 3.6; EC50 (HIV): 1.7 nM; residual rate [3]: 82.5
CCN1C(=O)c2c(O)c(=O)c(-c3nnc(Cc4c(F)cc(F)cc4F)s3)cn2N2C[C@@H](C)CC[C@@H]12 [II-068] | – | FC (fold change) for mutant strain 1 [1]: 3.5; FC (fold change) for mutant strain 2 [2]: 4.6; EC50 (HIV): 1.2 nM; residual rate [3]: 91.3
CCN1C(=O)c2c(O)c(=O)c(-c3nnc(Cc4ccc(F)cc4F)s3)cn2N2C[C@H]3CC[C@H](O3)[C@H]12 [II-047] | 1.4 | –
CC(C)N1C(=O)c2c(O)c(=O)c(-c3nnc(Cc4c(F)cc(F)cc4F)s3)cn2N2CC[C@@H](C)C[C@@H]12 [II-060] | 2.7 | –
CN1C(=O)c2c(O)c(=O)c(-c3nnc(Cc4ccc(F)cc4F)s3)cn2N2CCOC[C@@H]12 [II-010] | – | FC (fold change) for mutant strain 1 [1]: 25; FC (fold change) for mutant strain 2 [2]: 22; EC50 (HIV): 1.3 nM; residual rate [3]: 106
C[C@@H]1CCN2[C@@H](C1)N(C)C(=O)c1c(O)c(=O)c(-c3nnc(Cc4c(F)cc(F)cc4F)s3)cn12 [II-058] | – | FC (fold change) for mutant strain 1 [1]: 6.1; FC (fold change) for mutant strain 2 [2]: 6.1; EC50 (HIV): 0.69 nM; residual rate [3]: 94.2
CCN1C(=O)c2c(O)c(=O)c(-c3nnc(Cc4cc(F)c(F)cc4F)s3)cn2N2C[C@@H]3CC[C@@H](C3)[C@@H]12 [II-062] | – | FC (fold change) for mutant strain 1 [1]: 8.3; FC (fold change) for mutant strain 2 [2]: 6.6; EC50 (HIV): 5.2 nM; residual rate [3]: 71.7
CCN1C(=O)c2c(O)c(=O)c(-c3nnc(Cc4ccc(F)c(Cl)c4)s3)cn2N2CCCC[C@@H]12 [Compound I-010] | 3.8 | –
CC(C)N1C(=O)c2c(O)c(=O)c(-c3nnc(Cc4ccc(F)cc4F)s3)cn2N2CC[C@@H](C)C[C@@H]12 [II-059] | 1 | –
CN1C(=O)c2c(O)c(=O)c(-c3nnc(Cc4ccc(F)cc4F)s3)cn2N2Cc3ccccc3[C@@H]12 [II-040] | 1.3 | –
CCN1C(=O)c2c(O)c(=O)c(-c3nnc(Cc4ccc(F)cc4)s3)cn2N2CCOC[C@H]12 [II-019] | 2.1 | –
CCN1C(=O)c2c(O)c(=O)c(-c3cnn(Cc4ccc(F)cc4F)c3)cn2N2CCCC[C@H]12 [II-005] | 9.7 | –
CCN1C(=O)c2c(O)c(=O)c(-c3nnc(Cc4cc(F)c(F)cc4F)s3)cn2N2CCCC[C@H]12 [Compound I-011] | 5 | –
CCN1C(=O)c2c(O)c(=O)c(-c3cnn(Cc4ncc(Cl)cc4F)c3)cn2N2CCCC[C@H]12 [II-014] | 61 | –
CCN1C(=O)c2c(O)c(=O)c(-c3nnc(Cc4cccc(Cl)c4F)s3)cn2N2CCCC[C@H]12 [Compound I-005] | 3.2 | –
CCN1C(=O)c2c(O)c(=O)c(-c3nnc(Cc4ccc(F)cc4F)s3)cn2N2CCOC[C@H]12 [II-015] | 1.6 | –
C[C@@H]1CC[C@@H]2N(C)C(=O)c3c(O)c(=O)c(-c4nnc(Cc5ccc(F)cc5F)s4)cn3N12 [II-028] | 0.13 | –
CCN1C(=O)c2c(O)c(=O)c(-c3cnn(Cc4cccc(Cl)c4F)c3)cn2N2CCCC[C@H]12 [II-007] | 14 | –

SMILES | EC50 (HIV; [4]) [nM] | also measured
CN1C(=O)c2c(O)c(=O)c(-c3nnc(Cc4cccc(Cl)c4F)s3)cn2N2CCCC[C@H]12 [II-001] | 4.3 | –
CCN1C(=O)c2c(O)c(=O)c(-c3nnc(Cc4cccc(Cl)c4F)s3)cn2N2CCCC[C@@H]12 [Compound I-006] | 2.7 | –
CN1C(=O)c2c(O)c(=O)c(-c3nnc(Cc4c(F)cc(F)cc4F)s3)cn2N2C[C@@H]3CC[C@@H](O3)[C@@H]12 [II-035] | 0.28 | –
CCN1C(=O)c2c(O)c(=O)c(-c3nnc(Cc4ccc(F)cc4F)s3)cn2N2C[C@@H](C)C[C@H]12 [II-021] | 2.6 | –
C[C@@H]1CC[C@H]2N(C)C(=O)c3c(O)c(=O)c(-c4nnc(Cc5c(F)cc(F)cc5F)s4)cn3N12 [II-031] | 0.13 | –
CCN1C(=O)c2c(O)c(=O)c(-c3nnc(Cc4c(F)cc(F)cc4F)s3)cn2N2C[C@@H](C)C[C@H]12 [II-025] | 0.9 | –
CC(C)N1C(=O)c2c(O)c(=O)c(-c3nnc(Cc4c(F)cc(F)cc4F)s3)cn2N2C[C@H]3CC[C@H](O3)C12 (some centres unmarked) [II-053] | 1.3 | –
CCN1C(=O)c2c(O)c(=O)c(-c3cnn(Cc4cccc(Cl)c4F)c3)cn2N2CCCC[C@@H]12 [II-008] | 4.5 | –
C[C@@H]1CC[C@@H]2N(C)C(=O)c3c(O)c(=O)c(-c4nnc(Cc5c(F)cc(F)cc5F)s4)cn3N12 [II-030] | 1.4 | –
C[C@H]1CCN2[C@@H](C1)N(C)C(=O)c1c(O)c(=O)c(-c3nnc(Cc4ccc(F)cc4F)s3)cn12 [II-032] | 0.13 | –
CN1C(=O)c2c(O)c(=O)c(-c3nnc(Cc4cccc(Cl)c4F)s3)cn2N2CCCC[C@@H]12 [II-002] | 1.6 | –
CCN1C(=O)c2c(O)c(=O)c(-c3nnc(Cc4ccc(F)cc4F)s3)cn2N2CCOC[C@@H]12 [II-016] | 0.19 | –
CN1C(=O)c2c(O)c(=O)c(-c3nnc(Cc4ccc(F)cc4F)s3)cn2N2Cc3ccccc3[C@H]12 [II-039] | 3.8 | –
CCN1C(=O)c2c(O)c(=O)c(-c3nnc(Cc4ccc(F)c(Cl)c4)s3)cn2N2CCCC[C@H]12 [Compound I-009] | 7.2 | –
CN1C(=O)c2c(O)c(=O)c(-c3nnc(Cc4c(F)cc(F)cc4F)s3)cn2N2C[C@H]3CC[C@H](O3)[C@H]12 [II-036] | 2 | –
CN1C(=O)c2c(O)c(=O)c(-c3nnc(Cc4c(F)cc(F)cc4F)s3)cn2N2CCCC[C@@H]12 [II-004] | 0.7 | –
C[C@@H]1CCN2[C@@H](C1)N(C)C(=O)c1c(O)c(=O)c(-c3nnc(Cc4ccc(F)cc4F)s3)cn12 [II-034] | 0.13 | –
CCN1C(=O)c2c(O)c(=O)c(-c3nnc(Cc4ccc(F)cc4)s3)cn2N2CCOC[C@@H]12 [II-020] | 0.7 | –
CCN1C(=O)c2c(O)c(=O)c(-c3nnc(Cc4c(F)cc(F)cc4F)s3)cn2N2CCCC[C@H]12 [Compound I-007] | 2.2 | –
CCN1C(=O)c2c(O)c(=O)c(-c3nnc(Cc4ccc(F)cc4)s3)cn2N2C[C@H]3CC[C@H](O3)[C@H]12 [II-049] | 1.6 | –
CCN1C(=O)c2c(O)c(=O)c(-c3nnc(Cc4ccc(F)c(F)c4F)s3)cn2N2CCCC[C@H]12 [Compound I-013] | 3 | –
CCN1C(=O)c2c(O)c(=O)c(-c3nnc(Cc4c(F)cc(F)cc4F)s3)cn2N2CC[C@H](C)[C@@H]12 [II-026] | 0.39 | –
CN1C(=O)c2c(O)c(=O)c(-c3nnc(Cc4ccc(F)cc4F)s3)cn2N2CCOC[C@H]12 [II-009] | – | EC50 (HIV): 1.3 nM
CN1C(=O)c2c(O)c(=O)c(-c3nnc(Cc4c(F)cc(F)cc4F)s3)cn2N2CCOC[C@H]12 [II-011] | 0.5 | –
C[C@H]1CC[C@H]2N(C)C(=O)c3c(O)c(=O)c(-c4nnc(Cc5c(F)cc(F)cc5F)s4)cn3N2C1 [II-042] | 0.2 | –
